Reference: ChEMBL document CHEMBL1275399, “Novel potent orally active multitargeted receptor tyrosine kinase inhibitors: synthesis, structure-activity relationships, and antitumor activities of 2-indolinone derivatives” (J Med Chem, 2010)

Tests used:
[1] = biological target: Mast/stem cell growth factor receptor Kit (Homo sapiens, UniProt P10721); experiment: Inhibition of c-Kit after 30 mins by ELISA
[2] = biological target: Platelet-derived growth factor receptor beta (Homo sapiens, UniProt P09619); experiment: Inhibition of human PDGFRbeta after 30 mins by ELISA
[3] = Oral bioavailability in Sprague-Dawley rat at 10 mg/kg; type: ADME, organism-based; conditions: in vivo
[4] = system: Rattus norvegicus; experiment: AUC in Sprague-Dawley rat at 40 mg/kg, po; type: ADME, organism-based, Plasma; set-up: dose 40 mg/kg, route oral; conditions: in vivo
[5] = system: HT-29; experiment: animal or person; conditions: Mus musculus, HT-29, po, read-out: TGI
Description: Antitumor activity against human HT-29 cells xenografted in BALB/cA nude mouse assessed as inhibition of tumor growth at 10 mg/kg, po administered 11 days after tumor implantation qd for 14 days

[6] = Half life in Sprague-Dawley rat at 10 mg/kg, po and 10 mg/kg iv; type: ADME, organism-based; conditions: in vivo
[7] = Cmax in Sprague-Dawley rat at 10 mg/kg, po and 10 mg/kg iv; type: ADME, organism-based; conditions: in vivo
[8] = system: HT-29; experiment: Antitumor activity against human HT-29 cells xenografted in po dosed BALB/cA nude mouse assessed as inhibition of tumor growth administered 11 days after tumor implantation qd for 14 days; type: functional, organism-based
[9] = Volume of distribution in Sprague-Dawley rat at 10 mg/kg, po and 10 mg/kg iv; type: ADME, organism-based; conditions: in vivo
[10] = Clearance in Sprague-Dawley rat at 10 mg/kg, po and 10 mg/kg iv; type: ADME, organism-based; conditions: in vivo
[11] = system: Mus musculus; experiment: Toxicity in human HT-29 cells xenografted BALB/cA nude mouse assessed as mortality at up to 30 mg/kg, po administered 11 days after tumor implantation qd for 14 days; type: organism-based; set-up: dose 30 mg/kg, route oral; conditions: in vivo
[12] = system: Mus musculus; experiment: Toxicity in human HT-29 cells xenografted BALB/cA nude mouse assessed as weight loss at up to 30 mg/kg, po administered 11 days after tumor implantation qd for 14 days; type: organism-based; set-up: dose 30 mg/kg, route oral; conditions: in vivo
[13] = system: HT-29; experiment: animal or person; conditions: Mus musculus, HT-29, po, read-out: TGI; remark: listed apart in the source
Description: Antitumor activity against human HT-29 cells xenografted in BALB/cA nude mouse assessed as inhibition of tumor growth at 30 mg/kg, po administered 11 days after tumor implantation qd for 14 days

Sequence of Mast/stem cell growth factor receptor Kit (P10721 whole entry): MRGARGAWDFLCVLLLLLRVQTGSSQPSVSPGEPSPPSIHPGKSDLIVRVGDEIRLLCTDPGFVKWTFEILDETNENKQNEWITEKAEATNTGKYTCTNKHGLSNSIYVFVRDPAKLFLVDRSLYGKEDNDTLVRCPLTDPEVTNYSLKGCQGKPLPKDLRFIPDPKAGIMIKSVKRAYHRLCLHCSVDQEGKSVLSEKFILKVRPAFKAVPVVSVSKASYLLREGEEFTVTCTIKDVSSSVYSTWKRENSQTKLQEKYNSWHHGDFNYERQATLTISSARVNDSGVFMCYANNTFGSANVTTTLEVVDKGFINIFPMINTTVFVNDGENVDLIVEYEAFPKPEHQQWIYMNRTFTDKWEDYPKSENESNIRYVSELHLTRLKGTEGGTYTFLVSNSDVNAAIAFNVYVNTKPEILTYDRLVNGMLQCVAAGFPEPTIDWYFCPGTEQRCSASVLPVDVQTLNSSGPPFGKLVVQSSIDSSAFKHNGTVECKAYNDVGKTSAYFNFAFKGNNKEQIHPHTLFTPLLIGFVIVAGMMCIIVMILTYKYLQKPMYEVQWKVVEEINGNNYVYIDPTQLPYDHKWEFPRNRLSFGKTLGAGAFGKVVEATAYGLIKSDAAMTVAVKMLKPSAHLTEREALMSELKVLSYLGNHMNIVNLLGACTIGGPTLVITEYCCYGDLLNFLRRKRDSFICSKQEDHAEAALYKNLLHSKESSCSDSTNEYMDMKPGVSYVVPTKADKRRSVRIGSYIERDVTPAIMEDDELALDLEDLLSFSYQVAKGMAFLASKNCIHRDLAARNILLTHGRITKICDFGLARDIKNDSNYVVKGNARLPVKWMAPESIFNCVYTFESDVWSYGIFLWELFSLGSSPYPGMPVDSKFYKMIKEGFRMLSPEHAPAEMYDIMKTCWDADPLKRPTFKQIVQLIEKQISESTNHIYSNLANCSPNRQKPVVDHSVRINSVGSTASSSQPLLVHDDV
Sequence of Platelet-derived growth factor receptor beta (P09619 whole entry): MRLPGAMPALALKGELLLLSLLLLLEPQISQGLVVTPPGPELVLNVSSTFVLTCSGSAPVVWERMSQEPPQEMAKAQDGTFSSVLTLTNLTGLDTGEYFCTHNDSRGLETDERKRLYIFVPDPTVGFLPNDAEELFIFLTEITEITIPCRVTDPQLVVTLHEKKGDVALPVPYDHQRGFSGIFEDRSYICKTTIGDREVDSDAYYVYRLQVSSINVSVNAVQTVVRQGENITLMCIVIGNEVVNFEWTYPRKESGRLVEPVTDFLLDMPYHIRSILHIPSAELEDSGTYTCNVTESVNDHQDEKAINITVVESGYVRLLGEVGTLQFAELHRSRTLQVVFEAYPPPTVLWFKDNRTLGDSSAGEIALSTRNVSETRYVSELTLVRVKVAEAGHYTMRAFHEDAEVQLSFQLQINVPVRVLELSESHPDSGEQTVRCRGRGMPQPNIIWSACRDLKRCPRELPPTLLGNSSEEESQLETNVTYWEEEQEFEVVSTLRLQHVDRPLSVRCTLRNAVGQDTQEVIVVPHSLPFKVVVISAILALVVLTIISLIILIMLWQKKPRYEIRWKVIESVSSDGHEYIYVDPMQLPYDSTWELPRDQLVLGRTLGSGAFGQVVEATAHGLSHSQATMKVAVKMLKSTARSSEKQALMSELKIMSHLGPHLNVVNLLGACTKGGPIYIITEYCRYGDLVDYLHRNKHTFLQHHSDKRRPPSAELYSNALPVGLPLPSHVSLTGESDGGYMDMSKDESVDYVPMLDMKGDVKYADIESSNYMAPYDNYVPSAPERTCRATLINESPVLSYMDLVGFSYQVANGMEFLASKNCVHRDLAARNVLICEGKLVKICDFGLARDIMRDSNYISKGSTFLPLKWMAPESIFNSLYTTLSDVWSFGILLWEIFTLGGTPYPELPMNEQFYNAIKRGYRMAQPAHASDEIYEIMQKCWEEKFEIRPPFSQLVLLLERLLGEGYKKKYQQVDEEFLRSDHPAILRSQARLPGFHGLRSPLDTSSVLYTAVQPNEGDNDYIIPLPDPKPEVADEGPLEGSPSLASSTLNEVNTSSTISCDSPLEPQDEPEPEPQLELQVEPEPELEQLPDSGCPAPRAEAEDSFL

IC50 [1] [nM] | IC50 [2] [nM] | bioavailability [3] [%] | AUC [4] [ug/hr.ml] | half-life [6] [h] | Cmax [7] [ng/mL] | Vd [9] [L/kg] | clearance [10] [mL/min/kg] | SMILES | further results
4 | 5 | – | – | – | – | – | – | Cc1c(/C=C2\C(=O)Nc3ccc(F)cc32)[nH]c2c1C(=O)N(CCN1CCOCC1)CCC2 | –
9 | 13 | – | – | – | – | – | – | CCN(CC)CCN1CCCCc2[nH]c(/C=C3\C(=O)Nc4ccc(F)cc43)c(C)c2C1=O | –
8 | 11 | 55.2 | 49.21 | 3.76 | 9030 | 5.1 | 21 | Cc1c(/C=C2\C(=O)Nc3ccc(F)cc32)[nH]c2c1C(=O)N(C[C@H](O)CN1CCOCC1)CCC2 [HENATINIB] | inhibition in vivo at 10 mg/kg [5]: 51.7%; Activity [8]: Dose-dependent effect
4 | 3 | – | – | – | – | – | – | CCN(CC)CCN1CCc2[nH]c(/C=C3\C(=O)Nc4ccc(Br)cc43)c(C)c2C1=O | –
4 | 2 | – | – | – | – | – | – | CCN(CC)CCN1CCc2[nH]c(/C=C3\C(=O)Nc4ccc(Cl)cc43)c(C)c2C1=O | –
4 | 10 | 65.8 | 27.61 | 9.65 | 2410 | 18.8 | 22.8 | CCN(CC)CCN1CCCc2[nH]c(/C=C3\C(=O)Nc4ccc(F)cc43)c(C)c2C1=O | –
3 | 4 | – | – | – | – | – | – | Cc1c(/C=C2\C(=O)Nc3ccc(F)cc32)[nH]c2c1C(=O)N(CCN1CCCC1)CC2 | –
1 | 10 | – | – | – | – | – | – | Cc1c(/C=C2\C(=O)Nc3ccc(F)cc32)[nH]c2c1C(=O)N(CCN1CCOCC1)CC2 | –
– | – | – | – | – | – | – | – | CCN(CC)CCNC(=O)c1c(C)[nH]c(/C=C2\C(=O)Nc3ccc(F)cc32)c1C [SUNITINIB] | inhibition in vivo at 30 mg/kg [13]: 53.8%; Activity [8]: Dose-dependent effect
1 | 3 | – | – | – | – | – | – | Cc1c(/C=C2\C(=O)Nc3ccc(F)cc32)[nH]c2c1C(=O)N(CCN(C)C)CC2 | –
1 | 8 | 50.7 | 41.18 | 3.41 | 6110 | 4.13 | 17 | Cc1c(/C=C2\C(=O)Nc3ccc(F)cc32)[nH]c2c1C(=O)N(C[C@H](O)CN1CCOCC1)CC2 | –

SMILES | IC50 [1] [nM] | IC50 [2] [nM] | bioavailability [3] [%] | AUC [4] [ug/hr.ml] | half-life [6] [h] | Cmax [7] [ng/mL] | Vd [9] [L/kg] | clearance [10] [mL/min/kg] | further results
CCN(CC)CCN1CCc2[nH]c(/C=C3\C(=O)Nc4ccc(F)cc43)c(C)c2C1=O [FAMITINIB] | 2 | 4 | 36.7 | 10.96 | 18 | 450 | 97.4 | 64.5 | Activity [11]: Toxic; inhibition in vivo at 10 mg/kg [5]: 49.8%; Activity [12]: Toxic; Activity [8]: Dose-dependent effect
